# Experimental data: patent US9815819B2, “Complement pathway modulators and uses thereof” (priority 2012, dated 2017)
# Biological target: Recombinant human factor D (Homo sapiens (Human), UniProt P00746)
# Assay: Human Complement Factor D Assay: Method 1
# Assay type: biochemical
# Settings: Factor D inhibition, Method 1: 10 nM factor D, 1 hour incubation with compound at room temperature, substrate Z-Lys-thiobenzyl, fluorescence readout; read-out: IC50
# Method: Recombinant human factor D (expressed in E. coli and purified using standard methods) at 10 nM concentration is incubated with test compound at various concentrations for 1 hour at room temperature in 0.1 M Hepes buffer, pH 7.5, containing 1 mM MgCl2, 1 M NaCl and 0.05% CHAPS. […] IC50 values are calculated from percentage of inhibition of complement factor D-activity as a function of test compound concentration.
# Recombinant human factor D, sequence (P00746 26-253): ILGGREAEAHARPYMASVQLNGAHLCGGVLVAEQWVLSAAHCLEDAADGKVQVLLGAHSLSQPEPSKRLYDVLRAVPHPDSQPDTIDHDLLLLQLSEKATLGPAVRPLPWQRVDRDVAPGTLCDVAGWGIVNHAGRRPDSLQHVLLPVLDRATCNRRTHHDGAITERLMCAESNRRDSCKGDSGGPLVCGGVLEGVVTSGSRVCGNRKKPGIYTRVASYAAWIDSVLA
row,IC50,Compound
1,109 nM,"CC(=O)c1nn(CC(=O)N2[C@@H]3C[C@@H]3C[C@H]2C(=O)N[C@@H]2C[C@H]2c2cccc(Cl)c2F)c2ncccc12 [Example 56, (1R,3S,5R)-2-[2-(3-Acetyl-pyrazolo[3,4-b]pyridin-1-yl)-acetyl]-2-aza-bicyclo[3.1.0]hexane-3-carboxylic acid [(1R,2S)-2-(3-chloro-2-fluoro-phenyl)-cyclopropyl]-amide]"
2,1610 nM,"CC(=O)c1nn(CC(=O)N2[C@@H]3C[C@@H]3C[C@H]2C(=O)N[C@H]2C[C@@H]2c2cccc(Cl)c2F)c2ncccc12 [Example 57, (1R,3S,5R)-2-[2-(3-Acetyl-pyrazolo[3,4-b]pyridin-1-yl)-acetyl]-2-aza-bicyclo[3.1.0]hexane-3-carboxylic acid [(1S,2R)-2-(3-chloro-2-fluoro-phenyl)-cyclopropyl]-amide]"
3,64 nM,"CC(=O)c1nn(CC(=O)N2[C@@H]3C[C@@H]3C[C@H]2C(=O)N[C@@H]2C[C@H]2c2ccccc2F)c2ncccc12 [Example 63, (1R,3S,5R)-2-[2-(3-Acetyl-pyrazolo[3,4-b]pyridin-1-yl)-acetyl]-2-aza-bicyclo[3.1.0] hexane-3-carboxylic acid [(1R,2S)-2-(2-fluoro-phenyl)-cyclopropyl]-amide]"
4,791 nM,"CC(=O)c1nn(CC(=O)N2[C@@H]3C[C@@H]3C[C@H]2C(=O)N[C@H]2C[C@@H]2c2ccccc2F)c2ncccc12 [Example 64, (1R,3S,5R)-2-[2-(3-Acetyl-pyrazolo[3,4-b]pyridin-1-yl)-acetyl]-2-aza-bicyclo[3.1.0] hexane-3-carboxylic acid [(1S,2R)-2-(2-fluoro-phenyl)-cyclopropyl]-amide]"
5,30 nM,"CC(=O)c1nn(CC(=O)N2[C@@H]3C[C@@H]3C[C@H]2C(=O)N[C@@H]2C[C@H]2c2ccccc2Cl)c2cnccc12 [Example 65, (1R,3S,5R)-2-[2-(3-Acetyl-pyrazolo[3,4-c]pyridin-1-yl)-acetyl]-2-aza-bicyclo[3.1.0] hexane-3-carboxylic acid [(1R,2S)-2-(2-chloro-phenyl)-cyclopropyl]-amide]"
6,44 nM,"CC(=O)c1nn(CC(=O)N2[C@@H]3C[C@@H]3C[C@H]2C(=O)N[C@@H]2C[C@H]2c2ccccc2Cl)c2ncccc12 [Example 66, (1R,3S,5R)-2-[2-(3-Acetyl-pyrazolo[3,4-b]pyridin-1-yl)-acetyl]-2-aza-bicyclo[3.1.0] hexane-3-carboxylic acid [(1R,2S)-2-(2-chloro-phenyl)-cyclopropyl]-amide]"
7,35 nM,"NC(=O)c1nn(CC(=O)N2[C@@H]3C[C@@H]3C[C@H]2C(=O)N[C@@H]2C[C@H]2c2ccccc2Cl)c2cnccc12 [Example 67, 1-(2-{(1R,3S,5R)-3-[(1R,2S)-2-(2-Chloro-phenyl)-cyclopropylcarbamoyl]-2-aza-bicyclo[3.1.0]hex-2-yl}-2-oxo-ethyl)-1H-pyrazolo[3,4-c]pyridine-3-carboxylic acid amide]"
8,37 nM,"CCc1cc2c(C(N)=O)nn(CC(=O)N3[C@@H]4C[C@@H]4C[C@H]3C(=O)N[C@@H]3C[C@H]3c3ccccc3Cl)c2cn1 [Example 68, 1-(2-{(1R,3S,5R)-3-[(1R,2S)-2-(2-Chloro-phenyl)-cyclopropylcarbamoyl]-2-aza-bicyclo[3.1.0]hex-2-yl}-2-oxo-ethyl)-5-ethyl-1H-pyrazolo[3,4-c]pyridine-3-carboxylic acid amide]"
9,125 nM,"Cc1cc2c(C(N)=O)nn(CC(=O)N3[C@@H]4C[C@@H]4C[C@H]3C(=O)N[C@@H]3C[C@H]3c3ccccc3F)c2cn1 [Example 70, 1-(2-{(1R,3S,5R)-3-[(1R,2S)-2-(2-Fluoro-phenyl)-cyclopropylcarbamoyl]-2-aza-bicyclo[3.1.0]hex-2-yl}-2-oxo-ethyl)-5-methyl-1H-pyrazolo[3,4-c]pyridine-3-carboxylic acid amide]"
10,90 nM,"Cc1cc2c(C(N)=O)nn(CC(=O)N3C[C@H](F)C[C@H]3C(=O)N[C@@H]3C[C@H]3c3ccccc3F)c2cn1 [Example 71, 1-(2-{(2S,4R)-4-Fluoro-2-[(1R,2S)-2-(2-fluoro-phenyl)-cyclopropylcarbamoyl]-pyrrolidin-1-yl}-2-oxo-ethyl)-5-methyl-1H-pyrazolo[3,4-c]pyridine-3-carboxylic acid amide]"

# Further lines, the compound ahead of its results:
row,Compound,IC50
1,"CC(=O)c1nn(CC(=O)N2[C@@H]3C[C@@H]3C[C@H]2C(=O)N[C@@H]2C[C@@]2(F)c2ccccc2)c2ncccc12 [Example 44, (1R,3S,5R)-2-[2-(3-Acetyl-pyrazolo[3,4-b]pyridin-1-yl)-acetyl]-2-aza-bicyclo[3.1.0] hexane-3-carboxylic acid ((1R,2R)-2-fluoro-2-phenyl-cyclopropyl)-amide]",66 nM
2,"CC(=O)c1nn(CC(=O)N2[C@@H]3C[C@@H]3C[C@H]2C(=O)N[C@H]2C[C@]2(F)c2ccccc2)c2ncccc12 [Example 45, (1R,3S,5R)-2-[2-(3-Acetyl-pyrazolo[3,4-b]pyridin-1-yl)-acetyl]-2-aza-bicyclo[3.1.0] hexane-3-carboxylic acid ((1S,2S)-2-fluoro-2-phenyl-cyclopropyl)-amide]",10400 nM
3,"CC(=O)c1nn(CC(=O)N2[C@@H]3C[C@@H]3C[C@H]2C(=O)N[C@@H]2C[C@@]2(F)c2ccccc2)c2cnccc12 [Example 46, (1R,3S,5R)-2-[2-(3-Acetyl-pyrazolo[3,4-c]pyridin-1-yl)-acetyl]-2-aza-bicyclo[3.1.0] hexane-3-carboxylic acid ((1R,2R)-2-fluoro-2-phenyl-cyclopropyl)-amide]",32 nM
4,"CC(=O)c1nn(CC(=O)N2[C@@H]3C[C@@H]3C[C@H]2C(=O)N[C@H]2C[C@]2(F)c2ccccc2)c2cnccc12 [Example 47, (1R,3S,5R)-2-[2-(3-Acetyl-pyrazolo[3,4-c]pyridin-1-yl)-acetyl]-2-aza-bicyclo[3.1.0] hexane-3-carboxylic acid ((1S,2S)-2-fluoro-2-phenyl-cyclopropyl)-amide]",991 nM
5,"Cc1cc2c(C(N)=O)nn(CC(=O)N3[C@@H]4C[C@@H]4C[C@H]3C(=O)N[C@@H]3C[C@@]3(F)c3ccccc3)c2cn1 [Example 48, 1-{2-[(1R,3S,5R)-3-((1R,2R)-2-Fluoro-2-phenyl-cyclopropylcarbamoyl)-2-aza-bicyclo[3.1.0]hex-2-yl]-2-oxo-ethyl}-5-methyl-1H-pyrazolo[3,4-c]pyridine-3-carboxylic acid amide]",30 nM
6,"Cc1cc2c(C(N)=O)nn(CC(=O)N3[C@@H]4C[C@@H]4C[C@H]3C(=O)N[C@H]3C[C@]3(F)c3ccccc3)c2cn1 [Example 49, 1-{2-[(1R,3S,5R)-3-((1S,2S)-2-Fluoro-2-phenyl-cyclopropylcarbamoyl)-2-aza-bicyclo[3.1.0]hex-2-yl]-2-oxo-ethyl}-5-methyl-1H-pyrazolo[3,4-c]pyridine-3-carboxylic acid amide]",1190 nM
7,"CC(=O)c1nn(CC(=O)N2[C@@H]3C[C@@H]3C[C@H]2C(=O)N[C@@H]2C[C@H]2c2cccc(Cl)c2)c2ncccc12 [Example 54, (1R,3S,5R)-2-[2-(3-Acetyl-pyrazolo[3,4-b]pyridin-1-yl)-acetyl]-2-aza-bicyclo[3.1.0]hexane-3-carboxylic acid[(1R,2S)-2-(3-chloro-phenyl)-cyclopropyl]-amide]",225 nM
8,"CC(=O)c1nn(CC(=O)N2[C@@H]3C[C@@H]3C[C@H]2C(=O)N[C@H]2C[C@@H]2c2cccc(Cl)c2)c2ncccc12 [Example 55, (1R,3S,5R)-2-[2-(3-acetyl-pyrazolo[3,4-b]pyridin-1-yl)-acetyl]-2-aza-bicyclo[3.1.0]hexane-3-carboxylic acid[(1S,2R)-2-(3-chloro-phenyl)-cyclopropyl]-amide]",1580 nM
